Experimental data reported in US20130338190A1, “PHARMACEUTICALLY ACCEPTABLE SALT OF (E)-N-[4-[[3-CHLORO-4-(2-PYRIDYLMETHOXY)PHENYL]AMINO]-3-CYANO-7-ETHOXY-6-QUINOLYL]-3-[(2R)-1-METHYLPYRROLIDIN-2-YL]PROP-2-ENAMIDE, PREPARATION METHOD THEREOF, AND MEDICAL USE THEREOF” (priority 2011, published 2013).
Where a name gives a salt, the structure may show the parent alone. Read-outs that look alike come from different tables or passages of the source.

Columns and labels:
Solubility assay [1] = assay type: physicochemical
Method: According to the conventional solubility measurement, the solubility of a compound of formula (I) and salts thereof was determined in three different systems: water, physiological saline and methanol.

[2] = system: human carcinoma SK-BR-3 cells, which have high expression of HER-2; assay: HER-2 cell activity assay (SRB, 96 hours); assay type: cell-based; settings: read-out: IC50 (HER-2/SK-BR-3)
Excerpt: The following in vitro assay was to determine the activity of the compounds of the present invention for inhibiting the proliferation of human carcinoma SK-BR-3 cells, which have high expression of HER-2.
The following in vitro assay was to determine the activity of the test compounds for inhibiting the angiogenesis and proliferation of cancer cells, which have high expression of HER-2. The activity is represented by the IC50 value. The general procedure of the assay was as follows: the cancer cells line SK-BR-3 highly expressing HER-2 was chosen and the cells were seeded in a 96-well cell culture plate at a suitable density. The cells then were incubated in a carbon dioxide incubator until they reached 60% confluence. Then, the cell culture medium was replaced by fresh medium with the test compounds at various concentrations (6 to 7 concentrations). The cells were put back in the incubator and cultured continuously for 96 hours. The activity of the test compounds for inhibiting the cell proliferation was determined by using a Sulforhodamine B (SRB) method. IC50 values of test cells were calculated by the rate of inhibition at various concentrations of the test compounds.

HER-2 kinase = HER-2 kinase (Homo sapiens, UniProt P04626); assay: HER-2 kinase activity assay (time-resolved fluorescence); assay type: biochemical; settings: table of the HER-2 kinase activity assay; human-derived recombinant HER-2 kinase, 20 μM ATP, 25° C., 45 minutes; read-out: IC50 (HER-2/SK-BR-3)
Chain of HER-2 kinase (P04626 23-1255): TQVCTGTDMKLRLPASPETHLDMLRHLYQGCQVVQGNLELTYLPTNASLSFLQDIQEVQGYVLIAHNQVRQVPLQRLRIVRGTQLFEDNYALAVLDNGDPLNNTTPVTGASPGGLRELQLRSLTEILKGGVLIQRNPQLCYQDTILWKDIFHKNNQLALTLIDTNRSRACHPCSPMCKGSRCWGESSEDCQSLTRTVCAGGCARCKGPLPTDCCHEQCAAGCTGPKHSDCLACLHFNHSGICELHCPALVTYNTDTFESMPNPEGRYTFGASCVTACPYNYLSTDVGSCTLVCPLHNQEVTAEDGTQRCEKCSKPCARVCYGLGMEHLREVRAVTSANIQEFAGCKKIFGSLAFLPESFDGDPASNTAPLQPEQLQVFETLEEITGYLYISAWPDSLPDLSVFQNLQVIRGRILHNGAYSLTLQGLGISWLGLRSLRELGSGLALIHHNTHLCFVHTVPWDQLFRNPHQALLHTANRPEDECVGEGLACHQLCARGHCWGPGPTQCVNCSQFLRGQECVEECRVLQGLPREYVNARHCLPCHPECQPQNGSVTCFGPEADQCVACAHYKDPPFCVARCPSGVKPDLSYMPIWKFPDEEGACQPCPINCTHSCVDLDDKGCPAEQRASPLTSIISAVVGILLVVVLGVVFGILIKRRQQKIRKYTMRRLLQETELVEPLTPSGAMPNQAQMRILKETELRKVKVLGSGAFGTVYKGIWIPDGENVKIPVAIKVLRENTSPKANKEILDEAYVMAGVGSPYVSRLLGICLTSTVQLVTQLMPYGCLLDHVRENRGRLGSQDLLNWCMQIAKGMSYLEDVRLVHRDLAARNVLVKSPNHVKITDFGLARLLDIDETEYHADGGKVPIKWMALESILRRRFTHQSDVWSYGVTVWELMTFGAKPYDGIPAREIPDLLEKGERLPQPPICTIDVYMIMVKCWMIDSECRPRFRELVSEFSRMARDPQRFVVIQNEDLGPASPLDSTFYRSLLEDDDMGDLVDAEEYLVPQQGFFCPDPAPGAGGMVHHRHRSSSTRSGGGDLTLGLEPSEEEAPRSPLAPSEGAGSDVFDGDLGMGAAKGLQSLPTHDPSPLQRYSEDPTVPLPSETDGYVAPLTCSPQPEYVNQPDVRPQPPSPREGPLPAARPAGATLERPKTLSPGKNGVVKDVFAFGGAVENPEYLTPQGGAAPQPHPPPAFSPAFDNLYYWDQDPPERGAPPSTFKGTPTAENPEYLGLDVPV
Method: The in vitro HER-2 kinase activity was tested by the following assay.
The following assay was used to determine the activity of the compounds of the present invention for inhibiting HER-2 kinase. The half maximal inhibitory concentration IC50 (the concentration of the test compound showing 50% inhibition of the enzyme activity) of each compound was determined by incubating several different concentrations of the test compounds with a specific enzyme and substrate. […] The HER-2 kinase activity was determined by using a time-resolved fluorescence method.

Solubility assay [3] = assay type: physicochemical; remark: listed apart in the source
[4] = system: human epidermoid carcinoma A431 cells, which have high expression of EGFR; assay: EGFR cell proliferation inhibition assay (SRB, 72 hours); assay type: cell-based; settings: A431 cells, 72 hours, SRB, read-out: IC50 (EGFR/A431)
Method: The activity is represented by the IC50 value. The general procedures of the assay were as follows: the cancer cells A431 highly expressing EGFR were chosen and seeded in a 96-well cell culture plate at a suitable density (e.g., 5000 cells/mL medium). The cells were then incubated in a carbon dioxide incubator until they reached 85% confluence. Then, the cell culture medium was replaced by fresh medium containing the test compounds with serial dilutions (general 6 to 7 concentrations). The cells were put back in the incubator and cultured continuously for 72 hours. The activity of the test compounds for inhibiting the cell proliferation was determined by using a Sulforhodamine B (SRB) method. IC50 values were calculated by the rate of inhibition at various concentrations of the test compounds.

[5] = Pharmacokinetics assay in rats (LC/MS/MS of plasma); assay type: in vivo, Sprague Dawley (SD) rats; settings: both sexes, Sprague-Dawley, rat, plasma, 25 mg/kg; for AUC(0-t): read-out: AUC0-t; for MRT: read-out: MRT; for Cmax: read-out: Cmax; for Vd/F: read-out: Vz/F; for bioavailability: oral absolute bioavailability, 25 mg/kg (calculated by the base part)
Method: The rats were used as test animals. The compound of formula (I) and other salts thereof were administrated intragastrically, and a maleate salt of the compound of formula (I) was injected into the tail vein to determine the drug concentration in plasma at different time points by an LC/MS/MS method. The pharmacokinetic behavior, characteristics and the oral absolute bioavailability of the present compounds were studied and evaluated in rats. […] 28 healthy adult Sprague Dawley (SD) rats, half male and half female, were purchased from SINO-BRITSH SIPPR/BK LAB. ANIMAL LTD., CO, License number: SCXK (Shanghai) 2008-0016, and divided into 7 groups (4 rats in each group). The intravenous injection group: a suitable amount of compounds was weighed, dissolved in DMSO and diluted with normal saline to the final volume. […] healthy adult SD rats, half male and half female, were divided into 7 groups (4 rats in each group). […] For the intravenous injection group, blood samples (0.2 mL) were taken from orbital sinus before administration and at 2 min, 15 min, 30 min, 1.0 […] and 36.0 h after administration, stored in heparinized tubes and centrifuged for 10 minutes at 3,500 rpm to separate blood plasma. The plasma samples were stored at -20° C. For the intragastrical administration group, blood samples were taken before administration and at 0.5, 1.0, 2.0, 3.0, 4.0, 6.0, 8.0, 12.0, 24.0 and 36.0 hours after administration. The method to treat the samples was the same as with the intravenous injection group. The rats were fed 2 hours after administration.

SMILES	IC50 (HER-2 kinase)	half-life ([5]; iv, vein (tail vein injection))	AUC(0-t) ([5]; iv, vein (tail vein injection))	MRT ([5]; iv, vein (tail vein injection))	CL/F ([5]; po, gavage)	half-life ([5]; po, gavage)	AUC(0-t) ([5]; po, gavage)	Cmax ([5]; po, gavage)	MRT ([5]; po, gavage)	Vd/F ([5]; po, gavage)	bioavailability ([5]; po)	other results
CCOc1cc2ncc(C#N)c(Nc3ccc(OCc4ccccn4)c(Cl)c3)c2cc1NC(=O)/C=C/[C@H]1CCCN1C.Cc1ccc(S(=O)(=O)O)cc1 [Example 7, (E)-N-[4-[[3-chloro-4-(2-pyridylmethoxy)phenyl]amino]-3-cyano-7-ethoxy-6-quinolyl]-3-[(2R)-1-methylpyrrolidin-2-yl]prop-2-enamide p-toluenesulfonate]	64 nM	3.12 ± 0.37 h	113000 ± 62100 ng·h/mL	4.2 ± 0.99 h	10.5 mL/min/kg	3.52 ± 0.69 h	44300 ± 16000 ng·h/mL	5160 ± 1640 ng/mL	7.9 ± 0.74 h	3.23 ± 1.65 L/kg	39.2%	solubility (Solubility assay [1]; physiological saline, saline or isotonic, physiological saline, read-out: Solubility Value, Physiological saline): 100 µg/mL; solubility (Solubility assay [1]; water, read-out: Solubility Value, Water): 5390 µg/mL; IC50 ([2]; p-toluenesulfonate): 45 nM; solubility (Solubility assay [3]; 0.1 M hydrochloric acid, simulated gastric fluid): 31900 µg/mL; IC50 ([4]; p-toluenesulfonate): 38 nM
CCOc1cc2ncc(C#N)c(Nc3ccc(OCc4ccccn4)c(Cl)c3)c2cc1NC(=O)/C=C/[C@H]1CCCN1C [Example 9, (E)-N-[4-[[3-chloro-4-(2-pyridylmethoxy)phenyl]amino]-3-cyano-7-ethoxy-6-quinolyl]-3-[(2R)-1-methylpyrrolidin-2-yl]prop-2-enamide dihydrochloride]	46 nM	4.75 ± 0.32 h	115000 ± 33100 ng·h/mL	5.54 ± 0.58 h	6.67 mL/min/kg	3.47 ± 0.18 h	66100 ± 17200 ng·h/mL	5870 ± 1610 ng/mL	7.96 ± 0.7 h	1.99 ± 0.49 L/kg	57.6%	Solubility Value, Physiological saline (Solubility assay [1]; physiological saline, dihydrochloride): 0.2 mg/mL; Solubility Value, Water (Solubility assay [1]; water, dihydrochloride): 150 µg/mL; IC50 ([2]; dihydrochloride): 69 nM; Solubility Value, 0.1M Hydrochloric acid (Solubility assay [3]; 0.1M hydrochloric acid, dihydrochloride): 16590 µg/mL; IC50 ([4]; dihydrochloride): 49 nM
